Like-named read-outs stand apart in the source and are kept apart here.
How the values were obtained:
[1] = test system: Ctenocephalides felis; test: In vitro contact test with fleas; details: read-out: insecticidal activity; for pest or weed control at 0.04 µg/cm2, 0.04 µg/cm2: dose 0.04 μg/cm^2, dead or moribund fleas after 48 h; for pest or weed control at 0.2 µg/cm2, 0.2 µg/cm2: dose 0.2 μg/cm^2, dead or moribund fleas after 48 h; for pest or weed control at 1 µg/cm2, 1 µg/cm2: dose 1 μg/cm^2, dead or moribund fleas after 48 h
In short: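 Adult male and female cat fleas (5-10 per tube) placed in glass tubes coated with compound from acetone solution (900 ppm gives 5 μg/cm^2), kept at room temperature and ambient humidity. After 48 h, motionless or uncoordinated fleas scored dead or moribund; activity expressed as % dead or moribund.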

[2] = test system: Dermacentor variabilis; test: In vitro contact test with adult hard ticks (Dermacentor variabilis); details: read-out: acaricidal activity; for pest or weed control at 0.2 µg/cm2, 0.2 µg/cm2: dose 0.2 μg/cm^2, 48 h; for pest or weed control at 1 µg/cm2, 1 µg/cm2: dose 1 μg/cm^2, 48 h
In short: (§1)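 Adult R. sanguineus, I. ricinus, D. variabilis or A. americanum nymphs exposed in glass vials coated with compound from acetone (900 ppm gives 5 μg/cm^2). Held 48 h at room temperature (R. sanguineus) or 21° C., 85% rel. hum.; then heated at 45-50° C. ≤5 min, motionless or uncoordinated ticks scored dead/moribund.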

[3] = test system: Ixodes ricinus; test: In vitro contact test with adult hard ticks (Ixodes ricinus); details: read-out: acaricidal activity; for pest or weed control at 5 µg/cm2, 5 µg/cm2: dose 5 μg/cm^2, 48 h
In short: as §1

[4] = test system: Rhipicephalus sanguineus; test: In vitro contact test with adult hard ticks (Rhipicephalus sanguineus); details: read-out: acaricidal activity
In short: as §1

[5] = test system: Rhipicephalus (Boophilus) microplus; test: In vitro injection test with Rhipicephalus (Boophilus) microplus (BOOPMI Inj); details: 168 h, laid fertile eggs after 7 days, read-out: acaricidal activity; for pest or weed control at 32 ng: dose 0.032 μg/animal injected; for pest or weed control at 0.00016 mg: dose 0.16 μg/animal injected; for pest or weed control at 0.0008 mg: dose 0.8 μg/animal injected
In short: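 Test substance in DMSO; 1 μl injected into abdomen of each of 5 engorged adult female ticks, then held at 28° C., 85% rel. hum. Activity scored after 7 days from laying of fertile eggs: 100% = no eggs or all infertile, 0% = all eggs fertile.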

[6] = test system: Ctenocephalides felis; test: Ctenocephalides felis in-vitro feeding test with fleas (CTECFE oral); details: 48 hours, read-out: insecticidal feeding activity; for pest or weed control at 0.032 ppm: dose 0.032 ppm in citrated cattle blood; for pest or weed control at 0.16 ppm: dose 0.16 ppm in citrated cattle blood; for pest or weed control at 0.8 ppm: dose 0.8 ppm in citrated cattle blood; for pest or weed control at 4 ppm: dose 4 ppm in citrated cattle blood
In short: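 About 20 unfed adult cat fleas fed through parafilm on citrated cattle blood containing test substance (DMSO solution diluted in blood), held at about 37° C. Kill rate scored after 48 hours, 100% meaning all fleas dead.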

[7] = test system: Dermacentor variabilis; test: Systemic treatment in-vivo test with American dog tick nymph on rats; details: Dermacentor variabilis, ip, intraperitoneal injection, 2 mg/kg
Method: (§2) Systemic Treatment In-Vivo Test with American Dog Tick Nymph and Cat Flea on Rats
(§3) Type of study and overall study design: The method is a randomized non-blinded efficacy study in accordance with European animal welfare requirements. Rats (Rattus norvegicus) were randomized based on pre-treatment flea counts. The efficacy of treatment was determined by comparison of the flea and tick counts of different treatment groups versus the placebo-treated control group. The experimental unit was the individual study animal. Method and route of administration: The compound was applied in a suitable solvent and carrier (more specifically, added to glycerol formal; in case of poorly soluble compounds, a solvent mixture with up to 25% by volume of N-methyl pyrrolidone may be used.) considering the individual body weight as an intraperitoneal injection.
(§4) Experimental infestation: On the day of treatment and weekly thereafter, 30 ticks (D. variabilis nymphs) were released onto the back of each rat, and 30 fleas (C. felis) were released onto the back of each rat 24 h later.
(§5) Tick and Flea counting: Rats were thoroughly examined and ticks and fleas were manually removed 48 h (±4 h) after tick infestation and 24 h after flea infestation. Live fleas and live attached engorged ticks were counted. In non-evident cases, engorgement status was evaluated by squeezing the tick on a filter paper to find traces of blood as sign for engorgement.

[8] = test system: Spodoptera litura; test: Insecticidal testing against common cutworm; format: in vivo; details: foliar, 144 h, concentration 100 ppm, cabbage leaf dip, second-stage larvae, after 6 days, read-out: pesticidal rate
Description: Insecticidal Testing Against Common Cutworm (Spodoptera litura)

[9] = test system: Plutella xylostella; test: Insecticidal testing against diamondback moth; format: in vivo; details: foliar, 144 h, concentration 100 ppm, cabbage leaf dip, third-stage larvae, after 6 days, read-out: pesticidal rate
Description: Insecticidal Testing Against Diamondback Moth (Plutella xylostella)

[10] = test system: Laodelphax striatellus; test: Insecticidal testing against small brown planthopper; format: in vivo; details: 144 h, concentration 100 ppm, sprayed rice seedlings, after 6 days, read-out: pesticidal rate
In short: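 Acetone solution of compound at a set concentration sprayed onto rice seedlings, air-dried, then exposed to 10 planthoppers (one group). Held at 25° C; survival rate recorded after 6 days.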

[11] = test system: Amblyomma americanum; test: In vitro contact test with hard ticks (Amblyomma americanum nymphs); details: dose 1 μg/cm^2, 48 h, read-out: acaricidal activity
In short: as §1

[12] = test system: Ctenocephalides felis; test: Systemic treatment in-vivo test with cat flea on rats; details: Ctenocephalides felis, ip, intraperitoneal injection, 10 mg/kg
Method: as §2, §3, §4, §5

| Compound | pest or weed control at 0.04 µg/cm2, 0.04 µg/cm2 [1] | pest or weed control at 0.2 µg/cm2, 0.2 µg/cm2 [1] | pest or weed control at 1 µg/cm2, 1 µg/cm2 [1] | pest or weed control at 0.2 µg/cm2, 0.2 µg/cm2 [2] | pest or weed control at 1 µg/cm2, 1 µg/cm2 [2] | pest or weed control at 5 µg/cm2, 5 µg/cm2 [3] | pest or weed control at 32 ng [5] | pest or weed control at 0.00016 mg [5] | pest or weed control at 0.0008 mg [5] | pest or weed control at 0.032 ppm [6] | pest or weed control at 0.16 ppm [6] | pest or weed control at 0.8 ppm [6] | pest or weed control at 4 ppm [6] | pest or weed control at 100 ppm [8] | pest or weed control at 100 ppm [9] | pest or weed control at 100 ppm [10] | other results |
| --- | --- | --- | --- | --- | --- | --- | --- | --- | --- | --- | --- | --- | --- | --- | --- | --- | --- |
| CN(C(=O)c1ccc(F)cc1)c1cccc(C(=O)Nc2c(I)cc(C(F)(C(F)(F)F)C(F)(F)F)cc2OC(F)F)c1F [Compound 90] | 95% | 95% | 95% | 90% | 90% | 90% | 100% | 100% | 100% | 95% | 95% | 95% | 95% | ≥ 70% | ≥ 70% | ≥ 70% | pest or weed control at 1 µg/cm2, 1 µg/cm2 ([3]; dose 1 μg/cm^2, 48 h): 90%; pest or weed control at 0.2 µg/cm2, 0.2 µg/cm2 ([4]; dose 0.2 μg/cm^2, 48 h): 90%; pest or weed control at 1 µg/cm2, 1 µg/cm2 ([4]; dose 1 μg/cm^2, 48 h): 90%; pest or weed control at 6.4 ng ([5]; dose 0.0064 μg/animal injected): 100%; inhibition in vivo at 2 mg/kg ([7]; SD 2, read-out: Geometric mean percent reduction in live tick (Dermacentor variabilis) counts compared to untreated control rats): 100%; inhibition in vivo at 2 mg/kg ([7]; SD 9, read-out: Geometric mean percent reduction in live tick (Dermacentor variabilis) counts compared to untreated control rats): 83%; inhibition in vivo at 2 mg/kg ([7]; SD 16, read-out: Geometric mean percent reduction in live tick (Dermacentor variabilis) counts compared to untreated control rats): 29% |
| CN(C(=O)c1ccc(F)cc1)c1cccc(C(=O)Nc2c(Br)cc(C(F)(C(F)(F)F)C(F)(F)C(F)(F)F)cc2C(F)(F)F)c1F (centres unmarked) [Compound 93] | 95% | 95% | 95% | 90% | 90% | 90% | 100% | 100% | 100% | 95% | 95% | 95% | 95% | ≥ 70% | ≥ 70% | ≥ 70% | pest or weed control at 1 µg/cm2, 1 µg/cm2 [11]: 90%; inhibition in vivo at 10 mg/kg ([12]; SD 2, read-out: Geometric mean percent reduction in live flea (Ctenocephalides felis) counts compared to untreated control rats): 100%; inhibition in vivo at 10 mg/kg ([12]; SD 9, read-out: Geometric mean percent reduction in live flea (Ctenocephalides felis) counts compared to untreated control rats): 97%; inhibition in vivo at 10 mg/kg ([12]; SD 16, read-out: Geometric mean percent reduction in live flea (Ctenocephalides felis) counts compared to untreated control rats): 68%; inhibition in vivo at 10 mg/kg ([12]; SD 23, read-out: Geometric mean percent reduction in live flea (Ctenocephalides felis) counts compared to untreated control rats): 14% |

From patent US11696913B2, “Prolonged ectoparasite-controlling agent for animal” (MITSUI CHEMICALS AGRO, INC., priority 2017, dated 2023)
